Measurements published in PMC6272208, “2-Keto-D-Gluconate-Yielding Membrane-Bound D-Glucose Dehydrogenase from Arthrobacter globiformis C224: Purification and Characterization” (Molecules, 2015).
Counter-ions that a name gives are not always drawn.

What was measured:
Assay type in all cases: biochemical
[1] = system: T1, membrane-bound D-glucose dehydrogenase (GlcDH) from Arthrobacter globiformis C224; assay: single-substrate kinetics, Lineweaver-Burk; settings: pH 5.0 (Table 5); general assay uses ferricyanide as electron acceptor in McIlvaine buffer, stated there as pH 3.0
T1 construct: gene gcd; native, purified from membrane fraction of C224 (Triton X-114, precipitations, hydroxylapatite); 87 kDa, single SDS-PAGE band, no subunits
Excerpt: single-substrate kinetics, Lineweaver-Burk on membrane-bound D-glucose dehydrogenase (GlcDH) from Arthrobacter globiformis […]

[2] = biological target: T1, membrane-bound D-glucose dehydrogenase (GlcDH) from Arthrobacter globiformis C224; assay: steady-state product inhibition kinetics, Lineweaver-Burk; settings: competitive towards PMS; PMS varied at 33 mM glucose, gluconic acid 0-200 mM; read-out: inhibition constant
[3] = system: T1, membrane-bound D-glucose dehydrogenase (GlcDH) from Arthrobacter globiformis C224; assay: dual-substrate initial velocity kinetics (ping-pong); settings: artificial electron acceptor; glucose as co-substrate (5-80 mM), PMS 50-200 µM

| Structure (SMILES) | Km [1] [µM] | other results |
| --- | --- | --- |
| OC[C@H]1O[C@H](O[C@H]2[C@H](O)[C@@H](O)C(O)O[C@@H]2CO)[C@H](O)[C@@H](O)[C@@H]1O (stereo partly drawn) [maltose] | 590 ± 30 |  |
| O=C(O)[C@H](O)[C@@H](O)[C@H](O)[C@H](O)CO [gluconic acid] |  | Ki [2]: 11.4 mM |
| C[n+]1c2ccccc2nc2ccccc21 [N-methylphenazonium methyl sulfate] |  | Km [3]: 400 µM |
| OC[C@H]1OC(O)[C@H](O)[C@@H](O)[C@H]1O (stereo partly drawn) [D-galactose] | 460 ± 20 |  |
| OC[C@H]1OC(O)[C@H](O)[C@@H](O)[C@@H]1O (stereo partly drawn) [D-glucose] | 210 ± 10 |  |
| OC1OC[C@@H](O)[C@H](O)[C@H]1O (stereo partly drawn) [D-xylose] | 340 ± 20 |  |
